Results as given in patent publication US9487508B2, “SGC stimulators” (IRONWOOD PHARMACEUTICALS, INC., priority 2012, dated 2016).

How the values were obtained:
[1] = target: T1, soluble guanylate cyclase (sGC) (Homo sapiens, UniProt Q02108+Q02153); assay: sGC-HEK-cGMP assay with SNP incubation (LC/MS read-out); format: cell-based; conditions: 10 μM SNP; for Emax at 1 µM: 1 μM compound, read-out: HEK assay (Percent Emax at 1 μM); for Emax at 1 µM / Emax at 10 µM / Emax at 30 µM: 100% = BAY 41-2272 at 10 μM with 100 μM SNP; for Emax at 10 µM: 10 μM compound, read-out: HEK assay (Percent Emax at 10 μM); for Emax at 30 µM: 30 μM compound, read-out: HEK assay (Percent Emax at 30 μM); for Emax: maximum of full concentration-response curve, top not fitted to 100%, relative to BAY 41-2272 control, read-out: HEK assay Emax-unconstrained (Percent); for EC50: top of curve not fitted to 100%, read-out: HEK assay EC50-unconstrained
T1 construct: endogenously expressing soluble guanylate cyclase (sGC); endogenous in cells; host or cells: HEK293
T1 sequence (Q02153 1-619): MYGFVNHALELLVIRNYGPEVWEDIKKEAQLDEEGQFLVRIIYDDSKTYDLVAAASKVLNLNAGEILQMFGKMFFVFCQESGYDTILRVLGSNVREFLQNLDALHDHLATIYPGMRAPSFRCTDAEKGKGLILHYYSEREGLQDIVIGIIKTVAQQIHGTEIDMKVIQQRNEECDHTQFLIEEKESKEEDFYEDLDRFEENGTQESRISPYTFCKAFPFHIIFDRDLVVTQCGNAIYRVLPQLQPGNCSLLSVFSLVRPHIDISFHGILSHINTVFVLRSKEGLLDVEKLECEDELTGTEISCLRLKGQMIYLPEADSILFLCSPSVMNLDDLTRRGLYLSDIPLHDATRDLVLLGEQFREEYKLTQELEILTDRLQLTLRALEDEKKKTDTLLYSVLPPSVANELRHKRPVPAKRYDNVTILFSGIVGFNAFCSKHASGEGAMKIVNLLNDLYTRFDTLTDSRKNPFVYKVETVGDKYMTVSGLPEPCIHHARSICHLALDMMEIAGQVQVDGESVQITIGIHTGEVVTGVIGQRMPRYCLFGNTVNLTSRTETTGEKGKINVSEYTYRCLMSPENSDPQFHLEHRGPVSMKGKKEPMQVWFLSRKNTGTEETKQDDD
T1 sequence (Q02108 1-690): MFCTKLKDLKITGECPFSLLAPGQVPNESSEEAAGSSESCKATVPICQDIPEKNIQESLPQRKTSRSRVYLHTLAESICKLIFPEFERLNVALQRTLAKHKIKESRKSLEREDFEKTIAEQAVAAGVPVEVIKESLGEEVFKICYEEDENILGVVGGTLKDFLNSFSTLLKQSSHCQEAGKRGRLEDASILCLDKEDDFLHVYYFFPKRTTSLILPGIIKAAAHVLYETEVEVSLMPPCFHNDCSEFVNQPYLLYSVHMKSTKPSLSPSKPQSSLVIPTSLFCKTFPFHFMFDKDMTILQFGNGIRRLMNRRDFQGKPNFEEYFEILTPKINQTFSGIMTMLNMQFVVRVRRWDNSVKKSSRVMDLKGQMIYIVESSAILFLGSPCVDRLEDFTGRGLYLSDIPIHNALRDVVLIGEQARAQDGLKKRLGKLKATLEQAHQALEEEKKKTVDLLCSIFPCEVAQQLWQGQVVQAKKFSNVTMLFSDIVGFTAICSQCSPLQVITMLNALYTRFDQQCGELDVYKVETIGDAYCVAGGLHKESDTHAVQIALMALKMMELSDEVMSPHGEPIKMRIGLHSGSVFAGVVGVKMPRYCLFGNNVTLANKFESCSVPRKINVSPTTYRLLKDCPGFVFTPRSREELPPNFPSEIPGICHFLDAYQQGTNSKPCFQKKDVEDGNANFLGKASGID
Method: (Assay Run with SNP Incubation)
(§1) Human embryonic kidney cells (HEK293), endogenously expressing soluble guanylate cyclase (sGC), were used to evaluate the activity of test compounds. Compounds stimulating the sGC receptor should cause an increase in the intracellular concentration of cGMP. HEK 293 cells were seeded in Dulbecco's Modification of Eagle's Medium supplemented with fetal bovine serum (10% final) and L-glutamine (2 mM final) in a 200 μL volume at a density of 1×10^5 cells/well in a poly-D-lysine coated 96 well flat bottom plate and grown overnight at 37° C. Medium was aspirated and cells were washed with 1× Hank's Buffered Saline Salt Solution (200 μL). Cells were then incubated for 15 minutes at 37° C. with 200 μL of a 0.5 mM 3-isobutyl-1-methylxanthine (IBMX) solution. Test article and sodium nitroprusside solutions (x μM concentration for test article solution and 10 μM concentration for SNP solution; wherein x is one of the following concentrations);
were then added to the assay mixture (2 μL each) and the resulting mixture incubated at 37° C. for 10 minutes. After the 10 minute incubation, the assay mixture was aspirated and 0.1M HCl (200 μL) was added to the cells. The plate was incubated at 4° C. for 30 minutes in the 0.1M HCl to stop the reaction and lyse the cells. The plates were then centrifuged at 1,200 g for 5 minutes at room temperature. Supernatants were collected and transferred to a new flat bottom 96 well plate for analysis by HPLC-MS. Vehicle controls were carried out using DMSO (1%) solutions. A known sGC stimulator, BAY 41-2272, was used as the positive control. Samples were diluted with an equal volume of 1 M Ammonium Acetate (pH 7) to neutralize samples for better chromatography. A 2×cGMP standard solution was prepared in 0.1 M HCl and then diluted with an equal volume of 1 M Ammonium Acetate, with the following final concentrations in nM: 1024, 512, 256, 128, 64, 32, 16, 8, 4, 2, 1. cGMP concentrations in the test plates were determined from each sample using the LC/MS conditions shown in Table 2 below and the calculated cGMP standard curve. EC50 values were calculated from concentration-response curves generated with GraphPad Prism Software.
The biological activities of some of the compounds of Formula I or Formula Ib determined with the sGC-HEK assay with SNP incubation are summarized in Tables 3A and 3B.

[2] = test system: lambs with acute pulmonary hypertension; conditions: cited from earlier work; for pulmonary vasodilation / effect on mean arterial pressure / systemic arterial oxygenation / transpulmonary cGMP release: inhaled microparticles, awake lambs; for pulmonary vasodilation: U-46619 infused to mean pulmonary arterial pressure 35 mm Hg; for effect on mean arterial pressure / systemic arterial oxygenation / transpulmonary cGMP release: U-46619 infusion
[3] = target: T1, soluble guanylate cyclase (sGC); assay: HEK whole cell assay using HTRF procedure (with SNP incubation); format: cell-based; conditions: HTRF cGMP read-out, 10 μM SNP; for Emax: relative to BAY 41-2272 at 10 μM with 100 μM SNP, read-out: HEK assay Emax-unconstrained (Percent); for EC50: top of curve not fitted to 100%, read-out: HEK assay EC50-unconstrained
Method: Example 2B, HEK whole cell assay using HTRF procedure (Assay Run with SNP Incubation)
as §1, with “enzyme” for “receptor”
were then added to the assay mixture (2 μL each) and the resulting mixture incubated at 37° C. for 10 minutes. After the 10 minute incubation, the assay mixture was aspirated and 0.1M HCl (200 μL) was added to the cells. The plate was incubated at 4° C. for 30 minutes in the 0.1M HCl to stop the reaction and lyse the cells. The plates were then centrifuged at 1,200 g for 5 minutes at room temperature.
cGMP levels were determined using a cGMP HTRF assay (Cisbio Product #62GM2PEC). For each sample, 5 uL of HEK assay supernatant was diluted 1:5 in HTRF kit assay diluent and transferred to a well of the assay plate, and the HTRF assay was performed according to the HTRF kit manufacturer's instructions. Sample calculations were performed using high and low controls, where high control was supernatant from HEK assay performed in the presence of 10 uM Bay 41-2272+100 uM SNP, and the low control was the supernatant from the HEK assay performed in the presence of vehicle. A cGMP standard solution was prepared in 0.1 M HCl and diluted in order to perform a cGMP standard curve using the HTRF assay. Using Mean Ratio data from the HTRF assay, sample date were normalized according to the equation: 100*(Sample−Low Control)/(High Control−Low Control). Data were fit to a 3-parameter log agonist dose response (Top (% EMax), Bottom, log EC50) using Graphpad (Prism Software). Data in Table 3C was obtained using this modified assay procedure.

Emax at 1 µM [1] [%] | Emax at 10 µM [1] [%] | Emax at 30 µM [1] [%] | Emax [1] [%] | EC50 [1] [nM] | Compound | other results
20 to 40 | 20 to 40 | 20 to 40 | 20 to 40 | 500 to 1000 | COc1nc(-n2cc(-c3ccon3)c(Cc3ccccc3F)n2)ncc1F [Compound I-10] | –
– | – | – | – | – | O=C(O)CCCCN(CCc1ccccc1OCc1ccc(CCc2ccccc2)cc1)Cc1ccc(C(=O)O)cc1 [BAY 58-2667] | pulmonary vasodilation and transpulmonary cGMP release after treatment with ODQ ([2]; inhaled microparticles after intravenous ODQ, lambs): greatly enhanced; pulmonary vasodilation [2]: dose dependent pulmonary vasodilation; effect on mean arterial pressure [2]: without significant effect; systemic arterial oxygenation [2]: increased systemic arterial oxygenation; transpulmonary cGMP release [2]: increased transpulmonary cGMP release
60 to 80 | 80 to 100 | 80 to 100 | 80 to 100 | 10 to 100 | O=c1[nH]c(-n2cc(-c3ccon3)c(Cc3ccccc3F)n2)ncc1F [Compound I-1] | –
60 to 80 | 80 to 100 | 80 to 100 | 80 to 100 | 100 to 500 | Nc1ccnc(-n2cc(-c3ccon3)c(Cc3ccccc3F)n2)n1 [Compound I-9] | –
– | – | – | – | – | Fc1ccccc1Cc1nn(-c2ncc(F)c(N3CCOCC3)n2)cc1-c1ccon1 [Compound I-6] | Emax [3]: 80 to 100%; EC50 [3]: 100 to 500 nM
– | – | – | – | – | Nc1nc(-c2nn(Cc3ccccc3F)c3ncccc23)nc(N)c1N1CCOCC1 [BAY 41-8543] | magnitude and duration of pulmonary vasodilation induced by iNO ([2]; after inhaling microparticles, lambs): augmented; pulmonary vasodilation [2]: dose dependent pulmonary vasodilation; effect on mean arterial pressure [2]: without significant effect; systemic arterial oxygenation [2]: increased systemic arterial oxygenation; transpulmonary cGMP release [2]: increased transpulmonary cGMP release
80 to 100 | 100 to 120 | 100 to 120 | 100 to 120 | 10 to 100 | CC(C)[C@@H](C(=O)O)N(C)c1nc(-n2cc(-c3ccon3)c(Cc3ccccc3F)n2)ncc1F [Compound I-4] | –
– | – | – | – | – | O=c1onc2cnc3ccccc3n12 [ODQ, 1H-[1,2,4]oxadiazolo[4,3-a]quinoxalin-1-one] | pulmonary vasodilator effect of iNO ([2]; intravenous administration, lambs): markedly reduced
– | – | – | – | – | OCC(CO)Nc1nc(-n2cc(-c3ccon3)c(Cc3ccccc3F)n2)ncc1F [Compound I-5] | Emax [3]: 80 to 100%; EC50 [3]: 100 to 500 nM
– | – | – | – | – | OCC(O)Cn1ccc2cnc(-n3cc(-c4ccon4)c(Cc4ccccc4F)n3)nc21 (stereo not shown) [Compound I-7] | Emax [3]: 80 to 100%; EC50 [3]: 100 to 500 nM
– | – | – | – | – | Nc1nc(-c2nn(Cc3ccccc3F)c3ncccc23)ncc1C1CC1 [BAY 41-2272] | pulmonary vasodilation [2]: dose dependent pulmonary vasodilation; effect on mean arterial pressure [2]: without significant effect; transpulmonary cGMP release [2]: increased transpulmonary cGMP release
